Experimental data published in ChEMBL document CHEMBL1287736, “Design of a novel class of biphenyl CETP inhibitors” (Bioorg Med Chem Lett, 2010).

How the values were obtained:
[1] = molecular target: T1, Cholesteryl ester transfer protein (Homo sapiens, UniProt P11597); assay: Inhibition of CETP-mediated neutral lipid transfer by fluorometric analysis
T1 sequence (P11597 whole entry): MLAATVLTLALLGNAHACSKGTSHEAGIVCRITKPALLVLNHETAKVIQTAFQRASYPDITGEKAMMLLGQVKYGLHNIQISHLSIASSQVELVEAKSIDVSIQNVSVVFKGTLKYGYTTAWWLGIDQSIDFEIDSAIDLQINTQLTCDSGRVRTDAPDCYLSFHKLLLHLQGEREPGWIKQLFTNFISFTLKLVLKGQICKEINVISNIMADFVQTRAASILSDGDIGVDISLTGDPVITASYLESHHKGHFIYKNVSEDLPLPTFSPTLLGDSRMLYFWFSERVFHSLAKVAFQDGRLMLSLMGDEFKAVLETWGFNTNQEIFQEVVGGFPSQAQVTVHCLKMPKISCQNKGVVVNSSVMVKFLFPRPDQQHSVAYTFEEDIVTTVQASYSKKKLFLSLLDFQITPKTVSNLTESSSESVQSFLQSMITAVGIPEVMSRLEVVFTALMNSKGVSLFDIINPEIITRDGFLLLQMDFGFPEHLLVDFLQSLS

Mus musculus [2] = assay: Cardioprotective activity in transgenic B6 mouse expressing cynomolgus monkey CETP assessed as increase in HDL-cholesterol level at 100 mg/kg, po BID measured after 24 hrs of first dose; format: functional
Mus musculus [3] = assay: Cardioprotective activity in transgenic B6 mouse expressing cynomolgus monkey CETP assessed as increase in HDL-cholesterol level at 3 mg/kg, po BID measured after 24 hrs of first dose; format: functional
Mus musculus [4] = assay: Cardioprotective activity in po dosed transgenic B6 mouse expressing cynomolgus monkey CETP assessed as increase in HDL-cholesterol level administered BID measured after 24 hrs of first dose; format: functional, organism-based
Mus musculus [5] = assay: Cardioprotective activity in transgenic B6 mouse expressing cynomolgus monkey CETP assessed as increase in HDL-cholesterol level at 30 mg/kg, po BID measured after 24 hrs of first dose; format: functional
Mus musculus [6] = assay: Cardioprotective activity in transgenic B6 mouse expressing cynomolgus monkey CETP assessed as increase in HDL-cholesterol level at 1 mg/kg, po BID measured after 24 hrs of first dose; format: functional
Mus musculus [7] = assay: Cardioprotective activity in transgenic B6 mouse expressing cynomolgus monkey CETP assessed as increase in HDL-cholesterol level at 10 mg/kg, po BID measured after 24 hrs of first dose; format: functional

| IC50 [1] | Structure (SMILES) | other results |
| --- | --- | --- |
| 694 nM | COC(=O)N(Cc1cc(C(F)(F)F)cc(C(F)(F)F)c1)Cc1cc(OC)ccc1-c1cc(C(C)C)ccc1OC |  |
| 753 nM | CCCc1ccc(OC)c(-c2ccc(C(F)(F)F)cc2CN(Cc2cc(C(F)(F)F)cc(C(F)(F)F)c2)C(=O)OC)c1 |  |
| 2590 nM | COC(=O)N(Cc1cc(C(F)(F)F)cc(C(F)(F)F)c1)Cc1cc(C(F)(F)F)ccc1-c1cc(C(C)(C)C)ccc1OC |  |
| 224 nM | COC(=O)N(Cc1cc(C(F)(F)F)cc(C(F)(F)F)c1)Cc1cc(C#N)ccc1-c1cc(C(C)C)ccc1OC |  |
| 4490 nM | CCOc1ccc(C)cc1-c1ccc(C(F)(F)F)cc1CN(Cc1cc(C(F)(F)F)cc(C(F)(F)F)c1)C(=O)OC |  |
| 134 nM | COC(=O)N(Cc1cc(C(F)(F)F)cc(C(F)(F)F)c1)Cc1cc([N+](=O)[O-])ccc1-c1cc(C(C)C)ccc1OC |  |
| 1730 nM | COC(=O)N(Cc1cc(C(F)(F)F)cc(C(F)(F)F)c1)Cc1cc(F)ccc1-c1cc(C(C)C)ccc1OC |  |
| 1600 nM | COC(=O)N(Cc1cc(C(F)(F)F)cc(C(F)(F)F)c1)Cc1cc(C(F)(F)F)ccc1-c1ccccc1OC |  |
| 469 nM | COC(=O)N(Cc1cc(C(F)(F)F)cc(C(F)(F)F)c1)Cc1cc(C(F)(F)F)ccc1-c1cc(C)ccc1OC | Activity (Mus musculus [2]): 40% |
| 108 nM | COC(=O)N(Cc1cc(C(F)(F)F)cc(C(F)(F)F)c1)Cc1cc(C(F)(F)F)ccc1-c1cc(C(C)C)ccc1OC | Activity (Mus musculus [3]): 43%; Activity (Mus musculus [4]): Dose-dependent effect; Activity (Mus musculus [5]): 86%; Activity (Mus musculus [6]): 37%; Activity (Mus musculus [7]): 54% |
| 9510 nM | COC(=O)N(Cc1cc(C(F)(F)F)cc(C(F)(F)F)c1)Cc1cc(C(C)(C)C)ccc1-c1cc(C(C)C)ccc1OC |  |
| 117 nM | COC(=O)N(Cc1cc(C(F)(F)F)cc(C(F)(F)F)c1)Cc1cc(C(F)(F)F)ccc1-c1cc(C(C)C)c(F)cc1OC |  |
| 444 nM | COC(=O)N(Cc1cc(C(F)(F)F)cc(C(F)(F)F)c1)Cc1cc(C(F)(F)F)ccc1-c1cc(OC)ccc1OC |  |
| 365 nM | COC(=O)N(Cc1cc(C(F)(F)F)cc(C(F)(F)F)c1)Cc1cc(I)ccc1-c1cc(C(C)C)ccc1OC |  |
| 210 nM | CCc1ccc(OC)c(-c2ccc(C(F)(F)F)cc2CN(Cc2cc(C(F)(F)F)cc(C(F)(F)F)c2)C(=O)OC)c1 |  |
| 1430 nM | COC(=O)N(Cc1cc(C(F)(F)F)cc(C(F)(F)F)c1)Cc1cc(Cl)ccc1-c1cc(C(C)C)ccc1OC |  |
| 3830 nM | COC(=O)N(Cc1cc(C(F)(F)F)cc(C(F)(F)F)c1)Cc1ccccc1-c1cc(C(C)C)ccc1OC |  |
| 4660 nM | COC(=O)N(Cc1cc(C(F)(F)F)cc(C(F)(F)F)c1)Cc1cc(N)ccc1-c1cc(C(C)C)ccc1OC |  |
